Test results as given in patent US20120270929A1, “MODULATION OF TTC39 EXPRESSION TO INCREASE HDL” (ISIS Pharmaceuticals, Inc., priority 2009, published 2012).
Oligonucleotides are written 5' to 3', each unit as a sugar letter and its base; * is a phosphorothioate linkage, no mark a phosphodiester; rarer units and linkages stand in square brackets, end groups in braces. Plain capitals give the bases only. e = 2'-O-(2-methoxyethyl) (MOE); [5mC] = 5-methylcytosine; d = 2'-deoxy (DNA)

How the values were obtained:
murine TTC39B mRNA = experiment: Dose-dependent antisense inhibition of murine TTC39B in mouse primary hepatocytes (Example 2); format: cell-based; settings: cytofectin, ~16 h
Method in brief: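 Mouse primary hepatocytes (10,000/well) transfected via cytofectin with 25, 50, 100 or 200 nM antisense oligonucleotide for about 16 h. TTC39B mRNA quantified by real-time PCR, normalized to RIBOGREEN total RNA, as % inhibition versus untreated cells.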

ABCA1 mRNA = ABCA1 mRNA levels in C57BL/6 mice after TTC39B inhibition; format: in vivo, mouse; settings: 50 mg/kg/week, 6 weeks
Method: (§1) Four groups of five mice each were injected twice a week with 25 mg/kg (totaling 50 mg/kg/week) of ISIS 447114, ISIS 447118, ISIS 447143, or ISIS 447144 for 6 weeks. A control group of five mice was injected with phosphate buffered saline (PBS) twice a week for 6 weeks. Plasma samples were obtained before the start of treatment, at week 3 and at week 6. At the end of the treatment period, mice were fasted for 4 hours before being euthanized. Plasma and tissue samples were obtained for further analysis.
(§2) The effect of inhibition of TTC39B in mice on these proteins of reverse cholesterol transport was studied. RNA levels of ABCA1 were measured using murine primer probe set RTS1204 (forward sequence […], designated herein as SEQ ID NO: 97; reverse sequence […], designated herein as SEQ ID NO: 98; and probe sequence […], designated herein as SEQ ID NO: 99). RNA levels of apoA1 were measured using murine primer probe set RTS14737 (forward sequence […], designated herein as SEQ ID NO: 100; reverse sequence […], designated herein as SEQ ID NO: 101; and probe sequence […], designated herein as SEQ ID NO: 102). RNA levels of SRB1 were measured using murine primer probe set mSRB-1 (forward sequence […], designated herein as SEQ ID NO: 103; reverse sequence ATGCGACTTGTCAGGCTGG, designated herein as SEQ ID NO: 104; and probe sequence […], designated herein as SEQ ID NO: 105).

SRB1 mRNA = SRB1 mRNA levels in C57BL/6 mice after TTC39B inhibition; format: in vivo, mouse; settings: 50 mg/kg/week, 6 weeks
Method: as §1, §2

LDLR mRNA = LDLR mRNA levels in C57BL/6 mice; format: in vivo, mouse; settings: 50 mg/kg/week, 6 weeks, compared to PBS control
Method: as §1
The effect of inhibition of TTC39B in mice on cholesterol homeostasis was studied. PCSK9 mRNA levels were measured using the murine primer probe set mPCSK9 (forward sequence ACCGACTTCAACAGCGTGC, designated herein as SEQ ID NO: 106; reverse sequence GGCTGTCACACTTGCTCGC, designated herein as SEQ ID NO: 107, probe sequence AGGATGGGACACGCTTCCACAGACAX, wherein X is a fluorophore, designated herein as SEQ ID NO: 108). LDLR mRNA levels were measured using the murine primer probe set mLDLR (forward sequence GACCGCAGCGAGTACACCA, designated herein as SEQ ID NO: 109; reverse sequence TCACCTCCGTGTCGAGAGC, designated herein as SEQ ID NO: 110, probe sequence […], designated herein as SEQ ID NO: 111). The results are presented as percentage inhibition compared to the PBS control.

[1] = Plasma cholesterol and triglycerides in C57BL/6 mice (Olympus AU400e); format: in vivo, mouse; settings: for total cholesterol % increase over baseline: 6 weeks, baseline average of 72 mg/dL
Method: as §1
To investigate the effect of inhibition of TTC39B on triglycerides and cholesterol levels in the plasma, samples were collected on weeks 0, 3, and 6, and total plasma cholesterol, LDL cholesterol, HDL cholesterol, and triglycerides were analyzed on an Olympus AU400e Analyzer.

[2] = Plasma NEFA and 3-HB in C57BL/6 mice; format: in vivo, mouse; design: 3-HB levels: unit not given here; settings: for 3-HB % change over the baseline / NEFA % change over the baseline: 6 weeks
Method: as §1
Effect of antisense inhibition of TTC39B on free fatty acid levels Plasma levels of non-esterified fatty acids (NEFA) and 3-hydroxybutyric acid (3-HB), which are the end-products of fatty acid oxidation, were measured using an automated clinical chemistry analyzer (Olympus Clinical Analyzer).

[3] = Body and organ weights in C57BL/6 mice; format: in vivo, mouse; settings: for Kidney weight after treatment / Liver weight after treatment / Spleen weight after treatment: 50 mg/kg/week, 6 weeks
Method: as §1
Body weights of all the mice were measured weekly till the end of the treatment period. Organ weights were taken at the end of the treatment period when the mice were euthanized.

[4] = Liver function: plasma transaminases (ALT, AST) in C57BL/6 mice; format: in vivo, mouse
Method: as §1
To evaluate the impact of ISIS oligonucleotides on the hepatic function of the mice described above, plasma concentrations of transaminases were measured using an automated clinical chemistry analyzer (Olympus Clinical Analyzer). Measurements of alanine transaminase (ALT) and aspartate transaminase (AST) are expressed in IU/L. The results are presented in Tables 19 and 20 and indicate that the oligonucleotides were well tolerated.

[5] = Week 0 (before treatment), 50 mg/kg/week

For “CGGATGATTCTTGCTGGTAA (antisense e[5mC]*eG*eG*eA*eT*dG*dA*dT*dT*d[5mC]*dT*dT*dG*d[5mC]*dT*eG*eG*eT*eA*eA) [ISIS 447114]”, the “percent inhibition of TTC39B mRNA” value (murine TTC39B mRNA; 25 nM) was 42%, the “percent inhibition of TTC39B mRNA” value (murine TTC39B mRNA; 50 nM) was 70% and the “percent inhibition of TTC39B mRNA” value (murine TTC39B mRNA; 100 nM) was 85%. The “percent inhibition of TTC39B mRNA” value (murine TTC39B mRNA; 200 nM) was 92%, the “abcA1 mRNA levels (effect of TTC39B inhibition)” value (ABCA1 mRNA) was −18 and the “srb1 mRNA levels (effect of TTC39B inhibition)” value (SRB1 mRNA) was −12. For the same sequence, the “Percent inhibition LDLR mRNA levels” value (LDLR mRNA) was 2%, the “total cholesterol % increase over baseline” value ([1]; 50 mg/kg/week) was “+61%” and the HDL cholesterol levels [1, 5] was 42 mg/dL. For the same sequence, the LDL cholesterol levels [1, 5] was 11 mg/dL, the total cholesterol levels [1, 5] was 66 mg/dL and the triglyceride levels [1, 5] was 107 mg/dL. For the same sequence, the HDL cholesterol levels ([1]; Week 3, 50 mg/kg/week) was 47 mg/dL, the “HDL cholesterol levels (% change over baseline)” value ([1]; Week 3, 50 mg/kg/week) was “+14%” and the LDL cholesterol levels ([1]; Week 3, 50 mg/kg/week) was 12 mg/dL. It also gave a total cholesterol levels ([1]; Week 3, 50 mg/kg/week) of 70 mg/dL, a triglyceride levels ([1]; Week 3, 50 mg/kg/week) of 66 mg/dL and an HDL cholesterol levels ([1]; Week 6, 50 mg/kg/week) of 96 mg/dL. The “HDL cholesterol levels (% change over baseline)” value ([1]; Week 6, 50 mg/kg/week) was “+130%”, the LDL cholesterol levels ([1]; Week 6, 50 mg/kg/week) was 19 mg/dL and the total cholesterol levels ([1]; Week 6, 50 mg/kg/week) was 114 mg/dL. The triglyceride levels ([1]; Week 6, 50 mg/kg/week) was 113 mg/dL, the “3-HB % change over the baseline” value ([2]; 50 mg/kg/week) was “+184%” and the “NEFA % change over the baseline” value ([2]; 50 mg/kg/week) was “+144%”. For the same sequence, the 3-HB levels [2, 5] was 145, the NEFA levels [2, 5] was 0.67 mEq/L and the 3-HB levels ([2]; Week 3, 50 mg/kg/week) was 109. The NEFA levels ([2]; Week 3, 50 mg/kg/week) was 0.49 mEq/L, the 3-HB levels ([2]; Week 6, 50 mg/kg/week) was 449 and the NEFA levels ([2]; Week 6, 50 mg/kg/week) was 1.52 mEq/L. For the same sequence, the “Kidney weight after treatment” value [3] was 0.33 g, the “Liver weight after treatment” value [3] was 1.3 g and the “Spleen weight after treatment” value [3] was 0.09 g. It also gave a body weight ([3]; Week 3, 50 mg/kg/week) of 26 g, a body weight ([3]; Week 6, 50 mg/kg/week) of 27 g and a body weight ([3]; week 1, 50 mg/kg/week) of 25 g. The body weight ([3]; week 2, 50 mg/kg/week) was 25 g, the body weight ([3]; week 4, 50 mg/kg/week) was 26 g and the body weight ([3]; week 5, 50 mg/kg/week) was 27 g. It also gave an ALT levels [4, 5] of 46 IU/L, an AST levels [4, 5] of 83 IU/L and an ALT levels ([4]; Week 3, 50 mg/kg/week) of 21 IU/L. For the same sequence, the AST levels ([4]; Week 3, 50 mg/kg/week) was 29 IU/L, the ALT levels ([4]; Week 6, 50 mg/kg/week) was 40 IU/L and the AST levels ([4]; Week 6, 50 mg/kg/week) was 93 IU/L.
With “GCAGCTCGATTCGGGCATGA (antisense eG*e[5mC]*eA*eG*e[5mC]*dT*d[5mC]*dG*dA*dT*dT*d[5mC]*dG*dG*dG*e[5mC]*eA*eT*eG*eA) [ISIS 447118]” the “percent inhibition of TTC39B mRNA” value (murine TTC39B mRNA; 25 nM) was 49%, the “percent inhibition of TTC39B mRNA” value (murine TTC39B mRNA; 50 nM) was 65% and the “percent inhibition of TTC39B mRNA” value (murine TTC39B mRNA; 100 nM) was 74%. For the same sequence, the “percent inhibition of TTC39B mRNA” value (murine TTC39B mRNA; 200 nM) was 82%, the “abcA1 mRNA levels (effect of TTC39B inhibition)” value (ABCA1 mRNA) was −2 and the “srb1 mRNA levels (effect of TTC39B inhibition)” value (SRB1 mRNA) was 0. For the same sequence, the “Percent inhibition LDLR mRNA levels” value (LDLR mRNA) was 6%, the “total cholesterol % increase over baseline” value ([1]; 50 mg/kg/week) was “+37%” and the HDL cholesterol levels [1, 5] was 45 mg/dL. For the same sequence, the LDL cholesterol levels [1, 5] was 14 mg/dL, the total cholesterol levels [1, 5] was 71 mg/dL and the triglyceride levels [1, 5] was 82 mg/dL. For the same sequence, the HDL cholesterol levels ([1]; Week 3, 50 mg/kg/week) was 50 mg/dL, the “HDL cholesterol levels (% change over baseline)” value ([1]; Week 3, 50 mg/kg/week) was “+15%” and the LDL cholesterol levels ([1]; Week 3, 50 mg/kg/week) was 13 mg/dL. It also gave a total cholesterol levels ([1]; Week 3, 50 mg/kg/week) of 77 mg/dL, a triglyceride levels ([1]; Week 3, 50 mg/kg/week) of 69 mg/dL and an HDL cholesterol levels ([1]; Week 6, 50 mg/kg/week) of 100 mg/dL. The “HDL cholesterol levels (% change over baseline)” value ([1]; Week 6, 50 mg/kg/week) was “+89%”, the LDL cholesterol levels ([1]; Week 6, 50 mg/kg/week) was 15 mg/dL and the total cholesterol levels ([1]; Week 6, 50 mg/kg/week) was 97 mg/dL. The triglyceride levels ([1]; Week 6, 50 mg/kg/week) was 88 mg/dL, the “3-HB % change over the baseline” value ([2]; 50 mg/kg/week) was “+157%” and the “NEFA % change over the baseline” value ([2]; 50 mg/kg/week) was “+90%”. For the same sequence, the 3-HB levels [2, 5] was 158, the NEFA levels [2, 5] was 0.67 mEq/L and the 3-HB levels ([2]; Week 3, 50 mg/kg/week) was 111. It also gave an NEFA levels ([2]; Week 3, 50 mg/kg/week) of 0.51 mEq/L, a 3-HB levels ([2]; Week 6, 50 mg/kg/week) of 406 and an NEFA levels ([2]; Week 6, 50 mg/kg/week) of 1.18 mEq/L. For the same sequence, the “Kidney weight after treatment” value [3] was 0.32 g, the “Liver weight after treatment” value [3] was 1.4 g and the “Spleen weight after treatment” value [3] was 0.08 g. It also gave a body weight ([3]; Week 3, 50 mg/kg/week) of 26 g, a body weight ([3]; Week 6, 50 mg/kg/week) of 27 g and a body weight ([3]; week 1, 50 mg/kg/week) of 24 g. For the same sequence, the body weight ([3]; week 2, 50 mg/kg/week) was 25 g, the body weight ([3]; week 4, 50 mg/kg/week) was 26 g and the body weight ([3]; week 5, 50 mg/kg/week) was 27 g. It also gave an ALT levels [4, 5] of 29 IU/L, an AST levels [4, 5] of 88 IU/L and an ALT levels ([4]; Week 3, 50 mg/kg/week) of 39 IU/L. For the same sequence, the AST levels ([4]; Week 3, 50 mg/kg/week) was 39 IU/L, the ALT levels ([4]; Week 6, 50 mg/kg/week) was 50 IU/L and the AST levels ([4]; Week 6, 50 mg/kg/week) was 127 IU/L.
